pKd: −log10 of the molar value. “Also recorded” adds a separate entry of the source.
Assays:
THP-1 cells = assay: western blot of eIF4E targets, apoptosis and autophagy markers in THP-1 cells; type: cell-based, human; conditions: for HoxA9 protein levels: FIG. 7
KG-1a cells = assay: western blot of eIF4E targets, apoptosis and autophagy markers in KG-1a cells; type: cell-based, human; conditions: for Akt activation / LC3B level and cleavage (autophagy marker) / levels of eIF4E downstream targets XIAP, Mdm2, Mcl-1: KG1 cells; for levels of eIF4E downstream targets XIAP, Mdm2, Mcl-1: ribavirin 10 μM, azacytidine 3 μM
primary AML specimens = assay: colony forming assay in methyl cellulose, primary AML specimens; type: cell-based, human; conditions: Flt3 mutant versus Flt3 wildtype specimens, drug alone
Excerpt: (§1) FIG. 1 is a table summarizing the results of colony forming assays in methyl cellulose for primary AML specimens (purchased from the BLCQ) or specimens isolated from healthy volunteers (purchased from Stem Cell Technologies). A colony experiment typically runs for 14 days. A special media which supports hematopoietic cell growth was used (Methocult purchased from Stem Cell Technologies). Mutant refers to the presence of a mutation in the Flt3 gene (a common leukemia marker) and wildtype refers to Flt3 not being mutated in this specimen. Each experiment is carried out in quintuplicate with colony number plus/minus standard deviations given. […] Untreated controls were carried out in parallel for every single experiment. Experiments were done on specimens as described.

[1] = system: M1 AML specimen with elevated eIF4E (M1-high4E); assay: methyl-cellulose colony assay, M1 AML specimen with elevated eIF4E; type: cell-based, human; conditions: ribavirin 1 micromolar, azacytidine 3 micromolar
Excerpt: as §1

[2] = system: acute myeloid leukemia (AML); assay: phase II clinical trial of ribavirin monotherapy in leukemia (AML) patients, NCT00559091; type: in vivo, human
Excerpt: Thus, because of its properties, the eukaryotic translation initiation factor, eIF4E, has become an appealing clinical target to treat patients diagnosed with cancer, in particular AML. […] 114, no. 2 (Jul. 9, 2009, Epub 2009 May 11).
In conducting clinical trial no. […] In some patients, monotherapy had no impact. […] In fact, leukemic cells become resistant to nearly all monotherapies within two (2) to four (4) months; such being due to naturally occurring phenomena such as selective evolution (Abboud et al., “Induction therapy for elderly patients with acute myeloid leukemia”, Blood Reviews (2008) 22: 311-320, and Melnick et al., “MDS and secondary AML display unique patterns and abundance of aberrant DNA methylation”, Blood. 2009 Oct. 15; 114(16):3448-58. Epub 2009 Aug. 3). To overcome this issue of resistance, it is not uncommon in the clinical field, and as for most treatments involving a monotherapy, to follow-up this treatment with chemotherapy, as it taught in Abboud et al. (supra) and Melnick et al. (supra). As it is well known, the use of chemotherapeutic agents has many secondary effects on patients, including and not limited to damage of normal cells, anemia, bleeding, constipation, fatigue, hair loss, infections, memory changes, swelling, and even death amongst many others. Conventional chemotherapy also requires a stay at the hospital so as to administer the chemotherapeutic agent(s) as well as supportive care for the side effects. In this connection, Abboud et al., in Blood Reviews (2008, supra), review treatment strategies of patients over 60 (which are the majority of AML patients), diagnosed with AML, and the morbidities and mortalities associated with chemotherapy.
Ribavirin was used extensively as a broad-spectrum anti-viral therapy.

eIF4E = target: T1, eIF4E (Homo sapiens, UniProt P06730); assay: 3H ribavirin immunoprecipitation with eIF4E antibodies in FaDu cells; type: binding; conditions: 24 h, 0.66 micromolar 3H ribavirin, formaldehyde cross-linked
T1 construct: endogenous in cells; host or cells: FaDu cells
T1 sequence (P06730 whole entry): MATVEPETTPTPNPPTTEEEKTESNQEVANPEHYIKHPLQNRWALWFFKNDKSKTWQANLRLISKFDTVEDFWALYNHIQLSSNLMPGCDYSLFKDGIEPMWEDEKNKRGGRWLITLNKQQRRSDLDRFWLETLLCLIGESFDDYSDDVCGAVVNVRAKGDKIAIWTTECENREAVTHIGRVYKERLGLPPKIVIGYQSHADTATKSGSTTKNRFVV
Excerpt: Equal amounts of lysate were used for immunoprecipitation with antibodies to eIF4E or IgG controls. After 6 washes (W), beads were eluted in SDS Buffer. ⅕ of volume was used for western blot analysis and the rest for ^3H measurement. […] Input is a positive control showing that eIF4E is present in the cell lysate.
FIG. 3 is a western blot control for FIG. 2. This western blot confirms that antibodies to eIF4E immunoprecipitated eIF4E and that eIF4E was not found in the IgG control immunoprecipitation.

purified eIF4E = conditions: cited from earlier work
[3] = system: M1 and M2 AML specimens (with normal eIF4E levels); assay: methyl-cellulose colony assay, M1 and M2 AML specimens with normal eIF4E; type: cell-based, human; conditions: ribavirin 1 micromolar
Excerpt: as §1

[4] = Assouline et al, Blood 2009; cited from earlier work

| Structure (SMILES) | HoxA9 protein levels (THP-1 cells) | levels of eIF4E downstream targets XIAP, mdm2, Mcl-1 (THP-1 cells; THP-1 cells) | levels of NFkappaB subunit p65 (KG-1a cells; FIG. 6) | Akt activation (KG-1a cells) | LC3B level and cleavage (autophagy marker) (KG-1a cells) | levels of eIF4E downstream targets XIAP, Mdm2, Mcl-1 (KG-1a cells) | dependence of the effect on colony growth on Flt3 status (primary AML specimens) | colonies versus untreated controls [1] | clinical response of patients ([2]; Canada-wide clinical trial) | resistance to monotherapy in patients ([2]; clinical trial no. NCT00559091) | eIF4E protein (and RNA) levels in patients ([2]; phase II clinical trial, ribavirin monotherapy) | binding of 3H ribavirin to eIF4E in living cells (eIF4E) | pKd (purified eIF4E; Kentsis 2004, read-out: affinity constant for eIF4E) | Kd for purified eIF4E in vitro (purified eIF4E; Kentsis et al. 2004) | mdm2 protein level (eIF4E mRNA export target) (THP-1 cells; THP-1 cells, 48 hours) | colonies versus untreated cells [3] | drop in colonies versus untreated cells [3] [%] | eIF4E protein levels (KG-1a cells; KG-1a and THP-1 cells, ribavirin 48 hours) | mdm2 protein level (eIF4E mRNA export target) (KG-1a cells; KG-1a cells, 48 hours) | concentration in plasma from patients [4] [µM] |
| --- | --- | --- | --- | --- | --- | --- | --- | --- | --- | --- | --- | --- | --- | --- | --- | --- | --- | --- | --- | --- |
| Nc1ncn([C@@H]2O[C@H](CO)[C@@H](O)[C@H]2O)c(=O)n1 [azacytidine, 4-amino-1-β-D-ribofuranosyl-1,3,5-triazin-2(1H)-one] | elevates | upregulated; also recorded: elevated | elevated | leads to Akt activation | increases the total amount of LC3B protein | gross increase; also recorded: upregulated | independent of Flt3 status | about 80% | – | – | – | – | – | – | – | – | – | – | – | – |
| NC(=O)c1ncn([C@@H]2O[C@H](CO)[C@@H](O)[C@H]2O)n1 [ribavirin, 1-[(2R,3R,4S,5R)-3,4-dihydroxy-5-(hydroxymethyl)oxolan-2-yl]-1H-1,2,4-triazole-3-carboxamide] | does not reverse this | – | – | reduces Akt activation | elevated LC3B levels | reduced the expression | independent of Flt3 status | – | striking improvement | most if not all patients became resistant; also recorded: all eventually developed resistance | downregulation | binds directly to eIF4E in living cells; also recorded: eIF4E binds ^3H ribavirin | ~6.00 | low micromolar range | downregulated | 70-80% | ~25 | do not change | downregulated | 10 to 20 |

Reference: patent US20130209578A1, “Combinatory Cancer Treatment” (UNIVERSITE DE MONTREAL, priority 2010, published 2013)
